Where two headings read alike, the source gives them in different places.
How the values were obtained:
Pim-1 = Pim-1 (Homo sapiens (Human), UniProt P11309); assay: Pim-Mn enzyme assay (HTRF, 384-well), Pim-1; format: biochemical; conditions: read-out: Pim-1-Mn IC50 IP
Pim-2 = Pim-2 (Homo sapiens (Human), UniProt Q9P1W9); assay: Pim-Mn enzyme assay (HTRF, 384-well), Pim-2; format: biochemical; conditions: read-out: Pim-2-Mn IC50 IP
[1] = Pim-1 enzyme 5 pM, ATP 1.5 μM, BAD (S112) 0.5 μM, HTRF, 22-point curve
[2] = Pim-2 enzyme 0.5 pM, ATP 1.5 μM, BAD (S112) 0.5 μM, HTRF, 22-point curve

Pim-1, sequence (P11309 whole entry): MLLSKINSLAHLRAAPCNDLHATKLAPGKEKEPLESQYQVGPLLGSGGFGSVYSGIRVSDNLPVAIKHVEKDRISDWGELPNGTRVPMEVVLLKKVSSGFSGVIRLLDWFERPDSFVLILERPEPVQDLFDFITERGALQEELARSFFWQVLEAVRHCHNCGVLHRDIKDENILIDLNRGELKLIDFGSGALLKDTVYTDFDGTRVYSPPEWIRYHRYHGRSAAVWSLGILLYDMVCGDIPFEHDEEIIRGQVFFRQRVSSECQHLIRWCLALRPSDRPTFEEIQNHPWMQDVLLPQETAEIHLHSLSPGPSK
Pim-2, sequence (Q9P1W9 whole entry): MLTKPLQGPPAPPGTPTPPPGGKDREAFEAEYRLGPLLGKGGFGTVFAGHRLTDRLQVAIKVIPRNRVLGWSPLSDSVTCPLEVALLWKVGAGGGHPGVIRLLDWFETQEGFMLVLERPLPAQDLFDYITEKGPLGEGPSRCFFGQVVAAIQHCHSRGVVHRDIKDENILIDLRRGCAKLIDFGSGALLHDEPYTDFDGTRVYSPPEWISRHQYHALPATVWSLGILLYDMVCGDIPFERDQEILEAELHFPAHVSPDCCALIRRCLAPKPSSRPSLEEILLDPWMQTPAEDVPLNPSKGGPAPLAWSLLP

SMILES	IC50 (Pim-1; [1])	IC50 (Pim-2; [2])	IC50 (Pim-1)	IC50 (Pim-2)
CC(C)Nc1nc2c(-c3cc4c([nH]3)[C@@H](C)NC4=O)c(F)ccc2c(=O)n1C1CC1 [Example 490, (R)-3-cyclopropyl-7-fluoro-2-(isopropylamino)-8-(6-methyl-4-oxo-1,4,5,6-tetrahydropyrrolo[3,4-b]pyrrol-2-yl)quinazolin-4(3H)-one]	0.1 nM	0.2 nM		
C[C@H]1NC(=O)c2cc(-c3cccc4cnc(NC5(C)CC5)nc34)[nH]c21 [Example 499, (6R)-6-methyl-2-(2-((1-methylcyclopropyl)amino)-8-quinazolinyl)-5,6-dihydropyrrolo[3,4-b]pyrrol-4(1H)-one]	1 nM	1.6 nM		
C[C@H]1NC(=O)c2cc(-c3c(F)ccc4c(=O)n(C5CC5)c(NC5(C)CC5)nc34)[nH]c21 [Example 495, (R)-3-cyclopropyl-7-fluoro-8-(6-methyl-4-oxo-1,4,5,6-tetrahydropyrrolo[3,4-b]pyrrol-2-yl)-2-((1-methylcyclopropyl)amino)quinazolin-4(3H)-one]	0.046 nM	0.06 nM		
Cc1nc2cccc(-c3cc4c([nH]3)CCNC4=O)c2nc1NS(C)(=O)=O [Example 240, N-(3-methyl-8-(4-oxo-4,5,6,7-tetrahydro-1H-pyrrolo[3,2-c]pyridin-2-yl)quinoxalin-2-yl)methanesulfonamide 2,2,2-trifluoroacetate]			87.5 nM	9.6 nM
Cc1nc2cccc(-c3cc4c(=O)[nH]cnc4[nH]3)c2nc1F [Example 264, 6-(3-fluoro-2-methylquinoxalin-5-yl)-3H-pyrrolo[2,3-d]pyrimidin-4(7H)-one]	1120 nM	1690 nM		
Cc1nc2cccc(-c3cc4c([nH]3)CCNC4=O)c2nc1N[C@H]1C[C@@H](N(CCF)CCF)C1 [Example 476, 2-(3-(((1 s,3s)-3-(bis(2-fluoroethyl)amino)cyclobutyl)amino)-2-methylquinoxalin-5-yl)-6,7-dihydro-1H-pyrrolo[3,2-c]pyridin-4(5H)-one]	2 nM	12 nM		
Cc1nc2cccc(-c3cc4c([nH]3)[C@@H](C)NC4=O)c2nc1N[C@H]1CCC[C@@H](NC(=O)[C@H](N)CO)C1 [Example 497, N-((1R,3S)-3-((3-methyl-8-((6R)-6-methyl-4-oxo-1,4,5,6-tetrahydropyrrolo[3,4-b]pyrrol-2-yl)-2-quinoxalinyl)amino)cyclohexyl)-D-serinamide]	0.28 nM	0.16 nM		

Continued, in another order:

IC50 (Pim-1; [1])	IC50 (Pim-2; [2])	SMILES	IC50 (Pim-1)	IC50 (Pim-2)
1.3 nM	2.9 nM	Cc1nc2cccc(-c3cc4c([nH]3)CCNC4=O)c2nc1N[C@H]1CC[C@H]1N (racemic) [Example 54, rac-2-(3-((cis-2-aminocyclobutyl)amino)-2-methyl-5-quinoxalinyl)-1,5,6,7-tetrahydro-4H-pyrrolo[3,2-c]pyridin-4-one]		
0.6 nM	2.4 nM	Cc1nc2cccc(-c3cc4c([nH]3)CCNC4=O)c2nc1NC1CCNCC1 [Example 53, 2-(2-methyl-3-(4-piperidinylamino)-5-quinoxalinyl)-1,5,6,7-tetrahydro-4H-pyrrolo[3,2-c]pyridin-4-one]		
1.73 nM	2.38 nM	CC(=O)N[C@@H]1CCC[C@H](Nc2nc3c(-c4cc5c([nH]4)[C@@H](C)NC5=O)cccc3nc2C)C1 [Example 486, N-((1R,3S)-3-((3-methyl-8-((6R)-6-methyl-4-oxo-1,4,5,6-tetrahydropyrrolo[3,4-b]pyrrol-2-yl)-2-quinoxalinyl)amino)cyclohexyl)acetamide]		
300 nM	191 nM	Cc1nc2cccc(-c3cc4c([nH]3)CCNC4=O)c2nc1NC(C)(C)C(=O)O [Example 60, 2-methyl-N-(3-methyl-8-(4-oxo-4,5,6,7-tetrahydro-1H-pyrrolo[3,2-c]pyridin-2-yl)-2-quinoxalinyl)alanine]		
2.5 nM	1.4 nM	Cc1nc2cccc(-c3cc4c([nH]3)CCNC4=O)c2nc1N[C@H]1C[C@@H](O)C1 [Example 439, 2-(3-((cis-3-Hydroxycyclobutyl)amino)-2-methylquinoxalin-5-yl)-6,7-dihydro-1H-pyrrolo[3,2-c]pyridin-4(5H)-one]		

Source: patent US9394297B2, “Amides as pim inhibitors” (AMGEN INC., priority 2012, dated 2016)
